ChEMBL document CHEMBL1123439, “Folate analogues. 26. Syntheses and antifolate activity of 10-substituted derivatives of 5,8-dideazafolic acid and of the poly-gamma-glutamyl metabolites of N10-propargyl-5,8-dideazafolic acid (PDDF)” (J Med Chem, 1986)

Assays:
Thymidylate synthase = biological target: T1, Thymidylate synthase (Lactobacillus casei, UniProt P00469); experiment: Inhibitory activity against thymidylate synthase of Lactobacillus casei; set-up: species or system Lacticaseibacillus casei
T1 sequence (P00469 whole entry): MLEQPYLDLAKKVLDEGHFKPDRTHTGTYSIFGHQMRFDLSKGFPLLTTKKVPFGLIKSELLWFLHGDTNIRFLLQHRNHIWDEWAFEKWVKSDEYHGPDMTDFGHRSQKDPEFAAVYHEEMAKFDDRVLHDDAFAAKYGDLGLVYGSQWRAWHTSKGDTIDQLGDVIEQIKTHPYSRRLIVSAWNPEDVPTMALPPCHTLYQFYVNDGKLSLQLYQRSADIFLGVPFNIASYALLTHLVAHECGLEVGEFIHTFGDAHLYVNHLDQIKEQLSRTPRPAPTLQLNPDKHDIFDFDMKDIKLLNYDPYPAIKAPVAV

Lacticaseibacillus casei [1] = experiment: Inhibitory activity against Lactobacillus casei MTX-resistant; assay type: functional, organism-based
L1210 [2] = experiment: Inhibition of thymidylate synthesis in permeabilised cells; assay type: functional, cell-based; details: Mus musculus
Enterococcus faecium [3] = experiment: Inhibitory activity against Streptococcus faecium ATCC 8043; assay type: functional, organism-based
Enterococcus faecium [4] = experiment: Inhibitory activity against Streptococcus faecium MTX-resistant; assay type: functional, organism-based
Dihydrofolate reductase = Dihydrofolate reductase (Lactobacillus casei, UniProt P00381); experiment: Inhibitory activity against dihydrofolate reductase of Lactobacillus casei; set-up: species or system Lacticaseibacillus casei
Dihydrofolate reductase, sequence (P00381 whole entry): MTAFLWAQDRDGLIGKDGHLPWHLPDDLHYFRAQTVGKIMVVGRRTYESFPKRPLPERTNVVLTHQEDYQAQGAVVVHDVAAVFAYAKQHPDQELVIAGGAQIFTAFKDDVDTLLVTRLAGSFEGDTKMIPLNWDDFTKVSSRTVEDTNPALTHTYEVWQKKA

L1210 [5] = experiment: Inhibition of thymidylate synthesis in L1210 intact cells at 10 uM; assay type: functional; details: Mus musculus
L1210 [6] = experiment: Inhibition of thymidylate synthesis in L1210 cells at 100 uM; assay type: functional; details: Mus musculus
Lacticaseibacillus casei [7] = experiment: Inhibitory activity against Lactobacillus casei ATCC 7469; assay type: functional, organism-based

C#CN(Cc1ccc2nc(N)nc(O)c2c1)c1ccc(C(=O)NC(CCC(=O)O)C(=O)NC(CCC(=O)NC(CCC(=O)NC(CCC(=O)O)C(=O)O)C(=O)O)C(=O)O)cc1 (stereo unspecified)
IC50 (Thymidylate synthase): 0.014 µM
IC50 (Lacticaseibacillus casei [1]): > 20 µM
IC50 (L1210 [2]): 0.0014 µM
IC50 (Enterococcus faecium [3]): 0.075 µM
IC50 (Enterococcus faecium [4]): > 0.8 µM
IC50 (Dihydrofolate reductase): 3.7 µM
inhibition at 10 µM (L1210 [5]): 0%
inhibition at 100 µM (L1210 [6]): 3%
IC50 (Lacticaseibacillus casei [7]): 0.18 nM

C#CN(Cc1ccc2nc(N)nc(O)c2c1)c1ccc(C(=O)NC(CCC(=O)O)C(=O)NC(CCC(=O)O)C(=O)O)cc1 (stereo unspecified)
IC50 (Lacticaseibacillus casei [1]): 0.28 µM
IC50 (L1210 [2]): 0.006 µM
IC50 (Enterococcus faecium [3]): 0.00036 µM
IC50 (Enterococcus faecium [4]): 0.125 µM
inhibition at 10 µM (L1210 [5]): 0%
inhibition at 100 µM (L1210 [6]): 32%
IC50 (Lacticaseibacillus casei [7]): 0.05 nM

CC#CCN(Cc1ccc2nc(N)nc(O)c2c1)c1ccc(C(=O)N[C@@H](CCC(=O)O)C(=O)O)cc1
IC50 (Thymidylate synthase): 4.4 µM
IC50 (Lacticaseibacillus casei [1]): > 20 µM
IC50 (L1210 [2]): 14 µM
IC50 (Enterococcus faecium [3]): 0.0067 µM
IC50 (Enterococcus faecium [4]): 1.6 µM
IC50 (Dihydrofolate reductase): 250 µM
IC50 (Lacticaseibacillus casei [7]): 86 nM

C#CN(Cc1ccc2nc(N)nc(O)c2c1)c1ccc(C(=O)NC(CCC(=O)O)C(=O)NC(CCC(=O)NC(CCC(=O)NC(CCC(=O)NC(CCC(=O)O)C(=O)O)C(=O)O)C(=O)O)C(=O)O)cc1 (stereo unspecified)
IC50 (Thymidylate synthase): 0.013 µM
IC50 (Lacticaseibacillus casei [1]): > 20 µM
IC50 (L1210 [2]): 0.002 µM
IC50 (Enterococcus faecium [3]): > 0.08 µM
IC50 (Enterococcus faecium [4]): > 0.8 µM
IC50 (Dihydrofolate reductase): 2.9 µM
inhibition at 10 µM (L1210 [5]): 0%
inhibition at 100 µM (L1210 [6]): 8%
IC50 (Lacticaseibacillus casei [7]): 0.35 nM

CN(Cc1cnc2nc(N)nc(N)c2n1)c1ccc(C(=O)N[C@@H](CCC(=O)O)C(=O)O)cc1 [METHOTREXATE]
IC50 (Lacticaseibacillus casei [1]): > 1000 µM
IC50 (L1210 [2]): 60 µM
IC50 (Enterococcus faecium [3]): 0.0003 µM
IC50 (Enterococcus faecium [4]): 3.9 µM
inhibition at 10 µM (L1210 [5]): 95%
inhibition at 100 µM (L1210 [6]): 98%
IC50 (Lacticaseibacillus casei [7]): 0.03 nM

C#CN(Cc1ccc2nc(N)nc(O)c2c1)c1ccc(C(=O)NC(CCC(=O)NC(CCC(=O)NC(CCC(=O)O)C(=O)O)C(=O)O)C(=O)O)cc1 (stereo unspecified)
IC50 (Thymidylate synthase): 0.014 µM
IC50 (Lacticaseibacillus casei [1]): 1.1 µM
IC50 (L1210 [2]): 0.002 µM
IC50 (Enterococcus faecium [3]): 0.034 µM
IC50 (Enterococcus faecium [4]): > 0.8 µM
IC50 (Dihydrofolate reductase): 5.3 µM
inhibition at 10 µM (L1210 [5]): 0%
inhibition at 100 µM (L1210 [6]): 8%
IC50 (Lacticaseibacillus casei [7]): 0.08 nM

C#CN(Cc1ccc2nc(N)nc(O)c2c1)c1ccc(C(=O)NC(CCC=O)C(=O)O)cc1 (stereo unspecified)
IC50 (L1210 [2]): 0.03 µM
IC50 (Enterococcus faecium [3]): 0.00013 µM
IC50 (Enterococcus faecium [4]): 0.02 µM
inhibition at 10 µM (L1210 [5]): 55%
inhibition at 100 µM (L1210 [6]): 87%
IC50 (Lacticaseibacillus casei [7]): 0.4 nM

Nc1nc(O)c2cc(CN(CC3CC3)c3ccc(C(=O)N[C@@H](CCC(=O)O)C(=O)O)cc3)ccc2n1
IC50 (Thymidylate synthase): 12 µM
IC50 (Lacticaseibacillus casei [1]): > 20 µM
IC50 (L1210 [2]): 82 µM
IC50 (Enterococcus faecium [3]): 0.0026 µM
IC50 (Enterococcus faecium [4]): 1.5 µM
IC50 (Dihydrofolate reductase): 2.3 µM
IC50 (Lacticaseibacillus casei [7]): 8.1 nM
